Patent publication US9493464B2, “Wee1 degradation inhibitors” (The Scripps Research Institute, priority 2012, dated 2016)
Entries after “also recorded” stand apart in the source; their conditions may differ.

Tests used:
LKB1 = biological target: T1, LKB1 (Homo sapiens, UniProt Q15831); experiment: In vitro kinase assay, LKB1; format: biochemical
T1 construct: Reaction Biology Corporation (inferred: panel performed there)
T1 sequence (Q15831 1-433): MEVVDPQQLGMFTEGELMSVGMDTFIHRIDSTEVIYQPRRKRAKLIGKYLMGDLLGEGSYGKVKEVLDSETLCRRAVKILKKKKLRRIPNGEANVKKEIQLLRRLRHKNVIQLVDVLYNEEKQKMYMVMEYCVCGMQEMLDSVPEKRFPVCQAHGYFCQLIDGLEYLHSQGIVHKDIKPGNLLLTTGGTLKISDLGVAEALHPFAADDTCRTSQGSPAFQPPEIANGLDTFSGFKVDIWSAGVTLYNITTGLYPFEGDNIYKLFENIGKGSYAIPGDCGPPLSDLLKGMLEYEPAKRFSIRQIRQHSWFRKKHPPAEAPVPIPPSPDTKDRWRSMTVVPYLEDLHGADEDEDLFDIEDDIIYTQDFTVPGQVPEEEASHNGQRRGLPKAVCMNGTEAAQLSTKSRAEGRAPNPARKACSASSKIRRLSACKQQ
T1 sequence (Q7RTN6 1-431 partner): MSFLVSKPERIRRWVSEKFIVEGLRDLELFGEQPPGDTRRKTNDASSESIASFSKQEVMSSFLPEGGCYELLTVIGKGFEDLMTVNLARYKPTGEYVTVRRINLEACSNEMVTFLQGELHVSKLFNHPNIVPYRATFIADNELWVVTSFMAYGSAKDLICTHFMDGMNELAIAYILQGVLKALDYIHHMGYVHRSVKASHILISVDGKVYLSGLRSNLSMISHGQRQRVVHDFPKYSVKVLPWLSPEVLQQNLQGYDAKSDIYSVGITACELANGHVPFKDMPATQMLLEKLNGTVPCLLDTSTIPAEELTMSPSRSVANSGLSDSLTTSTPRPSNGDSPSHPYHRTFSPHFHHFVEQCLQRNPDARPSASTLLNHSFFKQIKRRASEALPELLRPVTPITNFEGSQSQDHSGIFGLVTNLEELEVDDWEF
T1 sequence (Q9Y376 1-341 partner): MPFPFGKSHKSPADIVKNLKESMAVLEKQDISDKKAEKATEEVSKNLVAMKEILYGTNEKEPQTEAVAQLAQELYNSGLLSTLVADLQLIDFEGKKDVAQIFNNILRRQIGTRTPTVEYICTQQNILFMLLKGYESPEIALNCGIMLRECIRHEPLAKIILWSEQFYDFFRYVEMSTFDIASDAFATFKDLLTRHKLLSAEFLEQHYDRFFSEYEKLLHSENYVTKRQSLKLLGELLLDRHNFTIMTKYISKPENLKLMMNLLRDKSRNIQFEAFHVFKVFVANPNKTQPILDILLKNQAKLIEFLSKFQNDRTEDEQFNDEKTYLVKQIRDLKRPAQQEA
Procedure: (§1) Compounds were tested in 10-dose IC50 mode with 3-fold serial dilution starting at 50 μM. […] Reactions were carried out at 10 μM ATP. Average and standard deviations of reactions carried out in triplicate are shown.
(§2) In vitro kinase assay to detect CK1 or FLT3 activity: CK1 and FLT3 assays as well as complete kinase profile of 296 kinases was performed by Reaction Biology Corporation. For FLT3 20 μM final Abltide was used, sequence: [[…]]. For CK1 (all isoforms) 20 μM CK1 tide was used, sequence: [KRRRAL[pS]VASLPGL] in a standard kinase assay with ^32P-ATP and purified kinase. Incorporation of ^32P-ATP into the peptide was measured after a filter-binding assay. In-house CK1d inhibition assays were performed using a standard homogenous time-resolved fluorescence resonance energy transfer (TR-FRET) format in 50 mM Hepes, pH 7.0, 2.5 mM MgCl2, 0.1 mg/ml bovine serum albumin, 1 mM DL-dithiothreitol, 0.01% Triton X-100 (all from Sigma-Aldrich). […] Assays were performed in the presence of 2 μL of compound at different (measured) concentrations, and reactions were stopped by adding 10 μL of 4 nM Eu-anti-p-Topo-IIa (PerkinElmer) in Lance Detection Buffer (Perkin Elmer). Upon excitation of the Eu-labeled antibody, energy is transferred to the acceptor dye resulting in the emission of detected light at 665 nm.

cyclin dependent kinases = experiment: Kinase activity, cyclin dependent kinases; format: biochemical; details: result in words
Excerpt: CNS neurogenesis requires Cdk1 activity regulated by the phosphatase Cdc25 and the tyrosine kinase Wee1[1]. Cdk1 activity decreases in normal adult neurons and is reactivated in neurological diseases such as Alzheimer's[2]. A major mechanism controlling Cdk1 activity in neurons is Wee1 degradation via the ubiquitin proteasome pathway. It was sought to identify pathways controlling neuronal Wee1 degradation using cerebellar granule cells and a reporter of Wee1 turnover, K328M-Wee1-Luciferase[4].

296 kinases = experiment: Kinase profile of 296 kinases (Reaction Biology Corporation); format: biochemical; details: result in words
K328M-Wee1-luciferase = K328M-Wee1-luciferase degradation with cycloheximide; format: cell-based; details: HeLa cells, 5 μM, result in words
Procedure: (§3) The percentage of signal relative to the proteasome inhibitor MG132 is shown. […] A Western blot is shown of endogenous Wee1 or Skp1 (loading control) of HeLa cells incubated with 5 μM of indicated compounds for 24 hours. […] The 0 time point was set to 100%. […] The extent of degradation was measured as in FIG. D.

Luciferase = Luciferase alone control (PGL3 vector); format: cell-based; details: HeLa cells, cycloheximide, 5 μM; result in words
Procedure: as §3
5 μM of indicated compounds were incubated with K328M-Wee1-Luciferase or Luciferase expressing HeLa cells and the extent of stabilization measured after adding Brite-lite. MG132 was used as a positive control.
Similar assays have previously been described; PubChem AID 1807.

endogenous Wee1 = experiment: Western blot of endogenous Wee1; format: cell-based; details: result in words
Procedure: as §3

CK1ε = biological target: T2, CK1ε (Homo sapiens, UniProt P49674); experiment: In vitro kinase assay, CK1ε (Reaction Biology Corporation); format: biochemical; details: 10 μM ATP
T2 construct: Reaction Biology Corporation (contract assay)
T2 sequence (P49674 whole entry): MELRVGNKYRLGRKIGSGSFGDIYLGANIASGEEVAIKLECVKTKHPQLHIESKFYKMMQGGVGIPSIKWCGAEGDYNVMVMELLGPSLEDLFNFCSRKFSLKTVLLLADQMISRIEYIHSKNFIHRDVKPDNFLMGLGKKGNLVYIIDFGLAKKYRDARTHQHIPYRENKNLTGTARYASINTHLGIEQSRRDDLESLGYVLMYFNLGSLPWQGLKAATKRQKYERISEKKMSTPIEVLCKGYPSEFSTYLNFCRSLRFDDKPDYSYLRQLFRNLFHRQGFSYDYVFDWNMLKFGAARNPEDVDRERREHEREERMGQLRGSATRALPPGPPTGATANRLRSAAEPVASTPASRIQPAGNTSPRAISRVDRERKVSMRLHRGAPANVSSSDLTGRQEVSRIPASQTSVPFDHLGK
Procedure: as §1, §2

SMILES: O=[N+]([O-])c1cccc2[nH]c(CNc3nc(N4CCOCC4)nc4c3ncn4-c3ccsc3)nc12 [SR-1277]
- activity toward LKB1 (LKB1; result in words): inactive

SMILES: c1ccc2[nH]c(CNc3nc(N4CCOCC4)nc4c3ncn4-c3ccsc3)nc2c1 [SR-653234]
- activity toward cyclin dependent kinases (cyclin dependent kinases): does not show any appreciable activity
- selectivity among 296 kinases (296 kinases): highly selective for casein kinase
- IC50 (LKB1): 92 nM
- K328M-Wee1-luciferase degradation (K328M-Wee1-luciferase): inhibited degradation of K328M-Wee1-luciferase; also recorded: inhibits K328M-Wee1-luciferase degradation
- luciferase degradation (Luciferase): does not affect luciferase degradation
- steady-state levels of endogenous Wee1 (endogenous Wee1): increased the steady-state levels of endogenous Wee1
- IC50 (CK1ε): 100 nM
